Assay results from patent US20260355196A1, “INHIBITORS AND DEGRADERS OF PIP4K PROTEIN” (Larkspur Biosciences, Inc., priority 2023, published 2026).

Target: T1, PIP4K2C (Homo sapiens, UniProt Q8TBX8)
T1 sequence (Q8TBX8 1-421): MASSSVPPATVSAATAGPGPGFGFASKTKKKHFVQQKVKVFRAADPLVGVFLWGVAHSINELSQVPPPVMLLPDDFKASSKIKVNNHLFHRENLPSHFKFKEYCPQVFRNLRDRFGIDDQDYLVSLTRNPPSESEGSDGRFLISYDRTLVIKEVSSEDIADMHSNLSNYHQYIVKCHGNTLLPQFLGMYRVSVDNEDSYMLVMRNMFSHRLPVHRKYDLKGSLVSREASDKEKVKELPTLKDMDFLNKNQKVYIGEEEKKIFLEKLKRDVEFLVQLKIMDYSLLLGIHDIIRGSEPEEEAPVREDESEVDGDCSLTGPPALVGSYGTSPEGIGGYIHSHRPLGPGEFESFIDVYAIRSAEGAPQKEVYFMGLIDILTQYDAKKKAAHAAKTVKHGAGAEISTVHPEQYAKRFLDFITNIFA
Assay: HiBiT PIP4K2C degradation assay in MOLT-4 cells (endogenous PIP4K2C C-terminally tagged with HiBiT)
Format: cell-based
Design: untagged in primary human PBMCs and monocyte-derived dendritic cells
Conditions: 6 hours of incubation time, rather than 24 hours; MOLT-4, top concentration 10 micromolar; read-out: HiBIT-degradation MOLT4 PIP4k2C DC50 (6 hours, marked *)
In short: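 MOLT-4 cells with endogenous PIP4K2C C-terminally HiBiT-tagged by CRISPR were treated with a 10-point, 3-fold dilution series from 10 micromolar, in duplicate, for 24 h or 6 h at 37 C. Remaining tagged protein read by HiBiT lytic luminescence; DC50 from Hill-equation fit.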

DC50, < 500 nM:
O=C1CCC(Nc2ccc(C3CCN([C@H]4CC[C@H](C(=O)N[C@H]5CC[C@H](Nc6ncc(F)c(-c7cccc(-c8ccc[nH]c8=O)c7)n6)CC5)CC4)CC3)c(F)c2)C(=O)N1 (stereo partly drawn) [Compound 396, trans-4-(4-(4-((2,6-dioxopiperidin-3-yl)amino)-2-fluorophenyl)piperidin-1-yl)-N-(trans-4-((5-fluoro-4-(3-(2-oxo-1,2-dihydropyridin-3-yl)phenyl)pyrimidin-2-yl)amino)cyclohexyl)cyclohexane-1-carboxamide]
O=C1CCC(Nc2ccc(C3CCN(C4CCN(C(=O)O[C@H]5CC[C@H](Nc6ncc(F)c(-c7cccc(N8CCCOC8=O)c7)n6)CC5)CC4)CC3)c(F)c2)C(=O)N1 (stereo partly drawn) [Compound 677, trans-4-((5-fluoro-4-(3-(2-oxo-1,3-oxazinan-3-yl)phenyl)pyrimidin-2-yl)amino)cyclohexyl 4-(4-((2,6-dioxopiperidin-3-yl)amino)-2-fluorophenyl)-[1,4′-bipiperidine]-1′-carboxylate]
O=C1CC[C@@H](Nc2ccc(C3CCN([C@H]4CC[C@H](NC(=O)[C@H]5CC[C@H](Nc6ncc(F)c(-c7cccc(-n8ccccc8=O)c7)n6)CC5)CC4)CC3)c(F)c2)C(=O)N1 (single isomer, unassigned) [Compound 418]
O=C1CC[C@@H](Nc2ccc(C3CCN(CC4CCN(C(=O)[C@H]5CC[C@H](Nc6ncc(F)c(-c7cccc(-n8ccccc8=O)c7)n6)CC5)CC4)CC3)c(F)c2)C(=O)N1 (single isomer, unassigned) [Compound 455]
Cn1nc(C2CCC(=O)NC2=O)c2ccc(N3CCN(C[C@H]4CC[C@H](C(=O)N[C@H]5CC[C@H](Nc6ncc(F)c(-c7cccc(-n8ccccc8=O)c7)n6)CC5)CC4)CC3)cc21 (stereo partly drawn) [Compound 489, trans-(1r,4R)-4-((4-(3-(2,6-dioxopiperidin-3-yl)-1-methyl-1H-indazol-6-yl)piperazin-1-yl)methyl)-N-((1r,4R)-4-((5-fluoro-4-(3-(2-oxopyridin-1(2H)-yl)phenyl)pyrimidin-2-yl)amino)cyclohexyl)cyclohexane-1-carboxamide]
O=C1CCC(Nc2ccc(N3CCC(N4CCC(C(=O)N[C@H]5CC[C@H](Nc6ncc(F)c(-c7cccc(N8CCOCC8=O)c7)n6)CC5)CC4)CC3)c(F)c2)C(=O)N1 (stereo partly drawn) [Compound 585, trans-1′-(4-((2,6-dioxopiperidin-3-yl)amino)-2-fluorophenyl)-N-(4-((5-fluoro-4-(3-(3-oxomorpholino)phenyl)pyrimidin-2-yl)amino)cyclohexyl)-[1,4′-bipiperidine]-4-carboxamide]
O=C1CCC(Nc2ccc(N3CCC(N4CCC(C(=O)N[C@H]5CC[C@H](Nc6ncc(F)c(-c7cccc(N8CCCCC8)c7)n6)CC5)CC4)CC3)c(F)c2)C(=O)N1 (stereo partly drawn) [Compound 516, trans-1′-(4-((2,6-dioxopiperidin-3-yl)amino)-2-fluorophenyl)-N-(4-((5-fluoro-4-(3-(piperidin-1-yl)phenyl)pyrimidin-2-yl)amino)cyclohexyl)-[1,4′-bipiperidine]-4-carboxamide]
O=C1CCC(Nc2ccc(C3CCN([C@H]4CC[C@H](NC(=O)[C@H]5CC[C@H](Nc6ncc(F)c(-c7cccc(C8(O)CCC8)n7)n6)CC5)CC4)CC3)c(F)c2)C(=O)N1 (stereo partly drawn) [Compound 479, trans-N-((trans)-4-(4-(4-((2,6-dioxopiperidin-3-yl)amino)-2-fluorophenyl)piperidin-1-yl)cyclohexyl)-4-((5-fluoro-4-(6-(1-hydroxycyclobutyl)pyridin-2-yl)pyrimidin-2-yl)amino)cyclohexane-1-carboxamide]
O=C1CCC(Nc2ccc(N3CCC(CC4CCN(C(=O)[C@H]5CC[C@H](Nc6ncc(F)c(-c7cccc(N8CCCOC8=O)c7)n6)CC5)CC4)CC3)c(F)c2)C(=O)N1 (stereo partly drawn) [Compound 425, trans-3-((3-fluoro-4-(4-((1-(-4-((5-fluoro-4-(3-(2-oxo-1,3-oxazinan-3-yl)phenyl)pyrimidin-2-yl)amino)cyclohexane-1-carbonyl)piperidin-4-yl)methyl)piperidin-1-yl)phenyl)amino)piperidine-2,6-dione]
O=C1CC[C@H](Nc2ccc(N3CCC(N4CCC(O)(C(=O)N[C@H]5CC[C@H](Nc6ncc(F)c(-c7cccc(-n8ccccc8=O)c7)n6)CC5)CC4)CC3)c(F)c2)C(=O)N1 (single isomer, unassigned) [Compound 594]
O=C1CCC(Nc2ccc(N3CCN(CC4CCN(C(=O)[C@H]5CC[C@H](Nc6ncc(F)c(-c7cccc(-c8ccccc8)c7)n6)CC5)CC4)CC3)c(F)c2)C(=O)N1 (stereo partly drawn) [Compound 485, trans-3-((4-(4-((1-(4-((4-([1,1′-biphenyl]-3-yl)-5-fluoropyrimidin-2-yl)amino)cyclohexane-1-carbonyl)piperidin-4-yl)methyl)piperazin-1-yl)-3-fluorophenyl)amino)piperidine-2,6-dione]
Cn1nc(N2CCC(=O)NC2=O)c2ccc(C3CCN(CC4CCN(C(=O)O[C@H]5CC[C@H](Nc6ncc(F)c(-c7cccc(-c8ccccc8)c7)n6)CC5)CC4)CC3)cc21 [Compound 636, trans-4-((4-([1,1′-biphenyl]-3-yl)-5-fluoropyrimidin-2-yl)amino)cyclohexyl 4-((4-(3-(2,4-dioxotetrahydropyrimidin-1 (2H)-yl)-1-methyl-1H-indazol-6-yl)piperidin-1-yl)methyl)piperidine-1-carboxylate]
O=C1CCC(Nc2ccc(N3CCC(N4CCC(NC(=O)[C@H]5CC[C@H](Nc6ncc(F)c(-c7cccc(N8CCCCC8)c7)n6)CC5)CC4)CC3)c(F)c2)C(=O)N1 (stereo partly drawn) [Compound 531, trans-N-(1′-(4-((2,6-dioxopiperidin-3-yl)amino)-2-fluorophenyl)-[1,4′-bipiperidin]-4-yl)-4-((5-fluoro-4-(3-(piperidin-1-yl)phenyl)pyrimidin-2-yl)amino)cyclohexane-1-carboxamide]
O=C1CCC(Nc2ccc(N3CCN(CC4(F)CCN(C(=O)[C@H]5CC[C@H](Nc6ncc(F)c(-c7cccc(-c8ccccc8)c7)n6)CC5)CC4)CC3)c(F)c2)C(=O)N1 (stereo partly drawn) [Compound 484, trans-3-[3-fluoro-4-[4-[[4-fluoro-1-[4-[[5-fluoro-4-(3-phenylphenyl)pyrimidin-2-yl]amino]cyclohexanecarbonyl]-4-piperidyl]methyl]piperazin-1-yl]anilino]piperidine-2,6-dione]

Same assay, conditions: 24 hours incubation, MOLT-4, top concentration 10 micromolar; read-out: HiBIT-degradation MOLT4 PIP4k2C 24 hours DC50

DC50, < 500 nM:
O=C1CCC(n2c(=O)oc3cc(C4CCN(CCC5CCN(C(=O)[C@@H]6CCC[C@H](Nc7ncc(F)c(-c8cccc(-n9cc(C(F)(F)F)ccc9=O)c8)n7)C6)CC5)CC4)ccc32)C(=O)N1 (stereo partly drawn) [Compound 357, 3-(6-(1-(2-(1-((1R,3S)-3-((5-fluoro-4-(3-(2-oxo-5-(trifluoromethyl)pyridin-1(2H)-yl)phenyl)pyrimidin-2-yl)amino)cyclohexane-1-carbonyl)piperidin-4-yl)ethyl)piperidin-4-yl)-2-oxobenzo[d]oxazol-3 (2H)-yl)piperidine-2,6-dione]
O=C1CCC(N2Cc3cc(C4CCN(C5CCN(CC(=O)N6CCC[C@H](Nc7ncc(Cl)c(-c8cccc(-c9ccccc9)c8)n7)C6)CC5)CC4)ccc3C2=O)C(=O)N1 (stereo partly drawn) [Compound 70, 3-(5-(1′-(2-((S)-3-((4-([1,1′-biphenyl]-3-yl)-5-chloropyrimidin-2-yl)amino)piperidin-1-yl)-2-oxoethyl)-[1,4′-bipiperidin]-4-yl)-1-oxoisoindolin-2-yl)piperidine-2,6-dione]
CC(C(=O)N1CCC(Nc2ncc(F)c(-c3cccc(-n4ccccc4=O)c3)n2)CC1)N1CCC(CN2CCC(c3ccc4c(c3)oc(=O)n4C3CCC(=O)NC3=O)CC2)CC1 (stereo not shown) [Compound 370, 3-(6-(1-((1-(1-(4-((5-fluoro-4-(3-(2-oxopyridin-1(2H)-yl)phenyl)pyrimidin-2-yl)amino)piperidin-1-yl)-1-oxopropan-2-yl)piperidin-4-yl)methyl)piperidin-4-yl)-2-oxobenzo[d]oxazol-3 (2H)-yl)piperidine-2,6-dione]
O=C1CCC(n2c(=O)oc3cc(C4CCN(CCC5CCN(C(=O)[C@H]6CC[C@H](Nc7ncc(F)c(-c8cccc(-n9ccccc9=O)c8)n7)CC6)CC5)CC4)ccc32)C(=O)N1 (stereo partly drawn) [Compound 321, trans-3-(6-(1-(2-(1-(4-((5-fluoro-4-(3-(2-oxopyridin-1(2H)-yl)phenyl)pyrimidin-2-yl)amino)cyclohexane-1-carbonyl)piperidin-4-yl)ethyl)piperidin-4-yl)-2-oxobenzo[d]oxazol-3 (2H)-yl)piperidine-2,6-dione]
O=C1CCC(N2Cc3cc(C4CCN(C5CCN(CC(=O)N6CCC(Nc7ncc(Cl)c(-c8cccc(-c9ccccc9)c8)n7)CC6)CC5)CC4)ccc3C2=O)C(=O)N1 (stereo not shown) [Compound 71, 3-(5-(1′-(2-(4-((4-([1,1′-biphenyl]-3-yl)-5-chloropyrimidin-2-yl)amino)piperidin-1-yl)-2-oxoethyl)-[1,4′-bipiperidin]-4-yl)-1-oxoisoindolin-2-yl)piperidine-2,6-dione]
